Test results taken from patent publication US9255118B2, “Light induced drug release” (UNIVERSITEIT LEIDEN, priority 2010, dated 2016).

Legend:
[1] = background statement; cited from earlier work
[2] = Complex stability at human body temperature in the dark (1H NMR in D2O, 37° C.); type: physicochemical; conditions: for Conversion of Ru compounds into their aqua complexes: +37° C.
Experimental: D2O (0.80 mL) was added to each of the NMR tubes and ^1H NMR spectra were taken. The NMR tubes were put into closed pressure tubes and kept in the dark at 37° C. to check the stability of the Ru—Cl and Ru—S bond. ^1H NMR spectra of each of the tubes were taken after 4 hours, 1 day, 3 days and 3 weeks. The NMR tubes were kept in an ice bath during transport in order to temporarily freeze the reaction. In the case of [Ru(terpy)(bpy)(Cl)](Cl), an equilibrium had been reached after four hours, characterized by 10% of [Ru(terpy)(bpy)(Cl)](Cl) and 90% of [Ru(terpy)(bpy)(H2O)](Cl)2.
The stability of the Ru—S bond was measured at human body temperature and in the dark. To do so, compound [Ru(tpy)(apy)Cl]Cl, and [Ru(tpy)(apy)(AMet)]Cl2, (compound [13](Cl)2) were dissolved in D2O and kept in the dark at 37° C. The release of the aqua species was measured by ^1H NMR after 4 hours, 1 days, and 3 weeks. […] The stability of the Ru—S bond depends on the nature of the polypyridyl ligands (see Example 2), but in general it is much higher than that of the Ru—Cl bond.

HepG2 cancer cells = test: WST-1 cell viability test in the dark; type: cell-based; conditions: 1.7 mM, 30 min in the dark, WST-1 normalized to protein content
Experimental: HepG2 cancer cells were grown in RPMI 1640 medium containing (−) L-glutamine at 37° C. and in an atmosphere of […] and 5% CO2. […] In this experiment, the difference in water solubility between the chlorido and thioether complexes might also play a role, as uptake might be different for both compounds.

[3] = Light-induced cleavage of the Ru-S bond in aqueous solution; type: physicochemical
[4] = 37° C., equilibrium after four hours

For `[Cl-].[Cl-].[Cl-].[Ru+3].c1ccc(-c2cccc(-c3ccccn3)n2)nc1` [mer-[Ru(terpy)(Cl)3]], the solubility in water [1] is given as “poorly soluble in water”.
In the case of `[Cl-].[Cl-].[Ru+2].c1ccc(N=Nc2ccccn2)cc1.c1ccc(N=Nc2ccccn2)cc1` [α-[Ru(azpy)2(Cl)2]], the solubility in water [1] is listed as “poorly soluble in water”.
In the case of “[Ru(terpy)(apy)(Cl)](Cl) [[Ru(tpy)(apy)(Cl)](Cl)]”, the “Conversion of Ru compounds into their aqua complexes” value (“Conversion” below) ([2]; 3 weeks) is reported as 48%, the “Conversion” value ([2]; 4 h) is reported as 48% and the “Conversion” value ([2]; 1 day) is reported as 48%.
For [Ru(terpy)(bpy)(Cl)](Cl), the “aqua complex [Ru(terpy)(bpy)(H2O)](Cl)2 at equilibrium” value [2, 4] was 90%, the “starting chlorido complex at equilibrium” value [2, 4] was 10% and the “cell survival reduced by” value (HepG2 cancer cells) was 49%.
In the case of “[Ru(terpy)(bpy)(D-biotin)](Cl)2 [Compound [7](Cl)2]”, the “cell survival reduced by” value (HepG2 cancer cells) is reported as “not reduced”.
In the case of “[Ru(terpy)(bpy)(mte)](BF4)2 [Compound [9](BF4)2]”, the “photosubstitution of the monodentate sulfur ligand” value ([3]; white light, aqueous solution) is reported as “photosubstituted by an aqua ligand”.
With “[Ru(tpy)(apy)(AMet)]Cl2 [Compound [13](Cl)2]” the “Conversion” value ([2]; 3 weeks) was 46%, the “Conversion” value ([2]; 4 h) was “no sign of cleavage” and the “Conversion” value ([2]; 4 h, listed as [Ru(tpy)(apy)(AMet)](Cl)2) was 0%. For the same compound, the “Conversion” value ([2]; 1 day) was 21% and the “photochemical cleavage of the Ru-S bond” value ([3]; visible light, D2O, 1H NMR and thin layer chromatography) was “photochemically labile”.
